Laboratory results: ChEMBL document CHEMBL1148067, “Khusimol, a non-peptide ligand for vasopressin V1a receptors” (J Nat Prod, 1994)
Activity calls are given as the source filed them. The rule behind the calls is not given here.

Experiments:
Vasopressin V1a receptor [1] = target: Vasopressin V1a receptor (Homo sapiens, UniProt P37288); experiment: Binding affinity to vasopressin V1a receptor
[2] = target: Vasopressin V1a receptor (Rattus norvegicus) (UniProt P30560); experiment: Displacement of [3H]AVP from vasopressin V1a receptor in rat liver membrane at 25 uM by competitive displacement assay; format: cell membranes
Vasopressin V1a receptor (Rattus norvegicus), sequence (P30560 whole entry, looked up): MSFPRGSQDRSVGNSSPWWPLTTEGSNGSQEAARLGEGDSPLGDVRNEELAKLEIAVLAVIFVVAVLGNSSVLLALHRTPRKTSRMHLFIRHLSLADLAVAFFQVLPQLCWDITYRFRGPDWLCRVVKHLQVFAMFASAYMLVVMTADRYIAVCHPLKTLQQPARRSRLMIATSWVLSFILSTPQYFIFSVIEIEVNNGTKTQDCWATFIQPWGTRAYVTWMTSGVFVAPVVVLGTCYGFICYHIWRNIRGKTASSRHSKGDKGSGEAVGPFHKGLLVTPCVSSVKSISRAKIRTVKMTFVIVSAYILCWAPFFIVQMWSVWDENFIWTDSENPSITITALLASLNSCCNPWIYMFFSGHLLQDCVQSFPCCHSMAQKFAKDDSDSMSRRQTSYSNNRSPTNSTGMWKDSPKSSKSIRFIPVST

[3] = target: Vasopressin V1a receptor (Rattus norvegicus) (UniProt P30560); experiment: Displacement of [3H]AVP from vasopressin V1a receptor in rat liver membrane at 50 uM by competitive displacement assay; format: cell membranes
Vasopressin V1a receptor [4] = target: T1, Vasopressin V1a receptor (Rattus norvegicus, UniProt P30560); experiment: Displacement of [3H]AVP from vasopressin V1a receptor in rat liver membrane; format: cell membranes
T1 sequence (P30560 whole entry): as the sequence (P30560 whole entry, looked up) above

Vasopressin V1a receptor [5] = target: T1, Vasopressin V1a receptor; experiment: Displacement of [3H]AVP from vasopressin V1a receptor in rat liver membrane by competitive displacement assay; format: cell membranes

Vasopressin V1a receptor (Homo sapiens, UniProt P37288), sequence (P37288 whole entry): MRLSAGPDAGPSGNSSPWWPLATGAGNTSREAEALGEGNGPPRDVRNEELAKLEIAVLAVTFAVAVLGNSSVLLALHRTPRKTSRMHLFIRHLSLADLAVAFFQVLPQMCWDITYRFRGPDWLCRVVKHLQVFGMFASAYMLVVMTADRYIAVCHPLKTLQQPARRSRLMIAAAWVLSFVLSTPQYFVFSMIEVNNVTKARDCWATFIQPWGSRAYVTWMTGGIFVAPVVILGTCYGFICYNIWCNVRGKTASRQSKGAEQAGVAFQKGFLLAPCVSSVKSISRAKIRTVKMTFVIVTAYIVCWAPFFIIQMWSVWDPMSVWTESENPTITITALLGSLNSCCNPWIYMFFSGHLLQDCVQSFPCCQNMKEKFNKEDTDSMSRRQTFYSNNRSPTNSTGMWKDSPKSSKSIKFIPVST

Compound | Ki (Vasopressin V1a receptor [1]) [µM] | inhibition [2] | inhibition [3] | IC50 (Vasopressin V1a receptor [4]) [µM] | Ki (Vasopressin V1a receptor [4]) [µM] | Ki (Vasopressin V1a receptor [5]) [µM]
CC(=O)NCCCOc1ccc(C(=O)N2CCC(N3C(=O)CCc4ccccc43)CC2)cc1 | 0.35 |  |  |  |  | 
C=C1[C@H]2CC[C@H](CO)[C@@]23CC[C@H](C3)C1(C)C [KHUSIMOL] |  | Active | Active | 125 | 41 | 53
